Assays:
Format in all cases: protein-complex assay
[1] = biological target: T1, Cyclin-dependent kinase 5/CDK5 activator 1 (Homo sapiens, UniProt Q00535); assay: Inhibition of CDK5/p25 (unknown origin)-mediated incorporation of gamma33P into substrate after 20 mins by scintillation counting analysis in presence of 33P-ATP
[2] = biological target: T1, Cyclin-dependent kinase 5/CDK5 activator 1; assay: Inhibition of CDK5/p25 (unknown origin) after 30 mins by SDS-PAGE analysis
[3] = biological target: T2, Cyclin-dependent kinase 5/CDK5 activator 1 (Homo sapiens) (UniProt Q00535+Q15078); assay: Inhibition of CDK5/p25 (unknown origin)-mediated incorporation of gamma33P into substrate assessed as change in enzyme activity at 0.5 uM after 20 mins by scintillation counting analysis in presence of 33P-ATP relative to negative control; parameters: scale not given: the % may be the effect or the level left
T2 sequence (Q00535 whole entry): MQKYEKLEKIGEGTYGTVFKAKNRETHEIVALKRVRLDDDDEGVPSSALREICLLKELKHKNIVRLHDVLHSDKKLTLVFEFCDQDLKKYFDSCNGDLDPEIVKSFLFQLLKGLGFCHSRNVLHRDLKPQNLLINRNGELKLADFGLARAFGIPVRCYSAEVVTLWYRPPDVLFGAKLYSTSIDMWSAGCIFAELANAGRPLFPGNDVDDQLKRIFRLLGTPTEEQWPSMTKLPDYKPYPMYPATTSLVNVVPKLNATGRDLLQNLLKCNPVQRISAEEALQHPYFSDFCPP
T2 sequence (Q15078 99-307 partner limits assumed): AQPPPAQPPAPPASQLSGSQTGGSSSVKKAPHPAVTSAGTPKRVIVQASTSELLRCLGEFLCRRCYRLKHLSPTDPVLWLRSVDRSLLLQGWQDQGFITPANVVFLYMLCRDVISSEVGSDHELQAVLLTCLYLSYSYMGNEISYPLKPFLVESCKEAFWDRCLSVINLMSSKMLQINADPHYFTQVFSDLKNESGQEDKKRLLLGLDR

[4] = biological target: T2, Cyclin-dependent kinase 5/CDK5 activator 1 (Homo sapiens); assay: Inhibition of CDK5/p25 (unknown origin)-mediated incorporation of gamma33P into substrate assessed as change in enzyme activity at 5 uM after 20 mins by scintillation counting analysis in presence of 33P-ATP relative to negative control; parameters: scale not given: the % may be the effect or the level left
[5] = biological target: T2, Cyclin-dependent kinase 5/CDK5 activator 1 (Homo sapiens); assay: Inhibition of CDK5/p25 (unknown origin)-mediated incorporation of gamma33P into substrate assessed as change in enzyme activity at 0.005 uM after 20 mins by scintillation counting analysis in presence of 33P-ATP relative to negative control; parameters: scale not given: the % may be the effect or the level left
[6] = biological target: T2, Cyclin-dependent kinase 5/CDK5 activator 1 (Homo sapiens); assay: Inhibition of CDK5/p25 (unknown origin)-mediated incorporation of gamma33P into substrate assessed as change in enzyme activity at 0.05 uM after 20 mins by scintillation counting analysis in presence of 33P-ATP relative to negative control; parameters: scale not given: the % may be the effect or the level left
[7] = biological target: T2, Cyclin-dependent kinase 5/CDK5 activator 1 (Homo sapiens); assay: Inhibition of CDK5/p25 (unknown origin)-mediated incorporation of gamma33P into substrate assessed as change in enzyme activity at 50 uM after 20 mins by scintillation counting analysis in presence of 33P-ATP relative to negative control; parameters: scale not given: the % may be the effect or the level left

T1 sequence (Q00535 whole entry): as the sequence (Q00535 whole entry) above
T1 sequence (Q15078 whole entry, further chain): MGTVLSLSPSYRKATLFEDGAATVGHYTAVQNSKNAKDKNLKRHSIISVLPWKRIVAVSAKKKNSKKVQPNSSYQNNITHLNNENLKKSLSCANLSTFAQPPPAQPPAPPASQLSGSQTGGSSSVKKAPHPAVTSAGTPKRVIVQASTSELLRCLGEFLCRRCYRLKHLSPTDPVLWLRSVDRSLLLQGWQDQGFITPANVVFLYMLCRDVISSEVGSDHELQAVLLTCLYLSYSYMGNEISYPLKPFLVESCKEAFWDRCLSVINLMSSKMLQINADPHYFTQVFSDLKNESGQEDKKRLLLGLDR

Row | IC50 [1] [µM] | IC50 [2] [µM] | Activity [3] [%] | Activity [4] [%] | Activity [5] [%] | Activity [6] [%] | Activity [7] [%] | SMILES
1 | 24.3 | 22.3 | -5 | -20 | -2 | -4 | -65 | O=C1/C(=C/c2ccc(O)c(O)c2)Oc2cc(O[C@@H]3O[C@H](CO)[C@@H](O)[C@H](O)[C@H]3O)cc(O)c21
2 |  | 9.29 |  |  |  |  |  | O=c1cc(-c2ccc(O)cc2)oc2c(-c3c(O)cc(O)c4c(=O)cc(-c5ccc(O)cc5)oc34)c(O)cc(O)c12 [CUPRESSUFLAVONE]
3 | > 50 | 44.4 | 2 | -7 | -3 | 1 | -15 | O=C1c2c(O[C@@H]3O[C@H](CO)[C@@H](O)[C@H](O)[C@H]3O)cc(O)cc2OC1(O)Cc1ccc(O)cc1 (some centres undefined)
4 | 4.81 | 3.5 | -20 | -47 | 0 | -2 | -88 | O=C1/C(=C/c2ccc(O)c(O)c2)Oc2cc(O)cc(O)c21 [AUREUSIDIN]
5 |  | 10.3 |  |  |  |  |  | O=c1c(O[C@@H]2O[C@H](CO)[C@H](O)[C@H](O)[C@H]2O)c(-c2ccc(O)c(O)c2)oc2cc(O)cc(O)c12 [HYPEROSIDE]
6 |  | 37 |  |  |  |  |  | O=C1/C(=C/c2ccc(O)c(O)c2)Oc2cc(O)ccc21 [SULFURETIN]
